Assay results reported in article PMC9238271, “The quorum sensing peptide EntF* promotes colorectal cancer metastasis in mice: a new factor in the host-microbiome interaction” (BMC Biology, 2022).
Where “and” joins values, the source holds several entries; their conditions need not be identical. Equal entries are not always repeated.

Experiments:
[1] = system: E-cadherin expression in HCT-116 cells; assay: Western blot of E-cadherin expression, CXCR4-negative HCT-116 cells; format: cell-based
Procedure: (§1) HCT-8, HT-29, and HT-116 cells were grown in DMEM medium supplied with 10% fetal bovine serum (FBS) and 1% penicillin-streptomycin. Caco-2 cells were grown in DMEM medium supplied with 10% FBS, 1% non-essential amino acid NEAA), and 1% penicillin-streptomycin. Cells were cultured at 37 °C and 5% CO2. As cells reached confluency, they were detached using 0.25% Trypsin-EDTA.
(§2) For Western blot analyses, HCT-8 (n = 15), HCT-116 (n = 12), Caco-2 (n = 6), and HT-29 (n = 12) cells were seeded in 6-well plates at a density of 1 × 10^6 cells/well. Twenty-four hours after seeding, all cell lines were treated with 1 μM EntF* or a placebo solution. HCT-8 cells were also tested for responsiveness to 1 μM EntF* synthetic alanine-derived analogs. For antagonist activity analysis, HCT-8 cells were treated with 1 μM Nef-M1 or 1 μM EntF*A1 alone or in combination with 500 nM EntF*. After 24 h, cells were detached from the surface and lysed in RIPA buffer (Thermo Scientific). Protein concentration was determined using the modified Lowry protein assay kit (Thermo Scientific), according to the manufacturer’s instructions. Protein samples were diluted to the same concentration (4 μg/μL) with water and diluted again 1:1 using 2x Laemmli buffer. After that, samples were boiled for 5 min at 95 °C to denature proteins and centrifuged for 5 min at 16,000g; supernatants were used for Western blot analyses. Equal amounts of total protein (20 μg/lane) were separated by SDS-PAGE on an Any kD^TM gel (Bio-Rad ) and then transferred to a PVDF membrane. Before incubation with antibodies, non-specific binding sites on the membranes were blocked using 5% skimmed milk solution (1 h). TBS buffer with 0.05% Tween 20 was used for all washing steps. Membranes were incubated overnight at 4 °C with an anti-E-cadherin primary antibody (1/1000 dilution). An HRP-conjugated anti-rabbit antibody (1/2000 dilution, 1 h incubation) was used for chemiluminescent detection. Membranes were incubated with the detection substrate for 5 min and signal detection was performed using the ChemiDoc EZ imager and Image Lab software (Bio-Rad). Signal intensity was normalized against the total protein content in each lanes.

[2] = system: E-cadherin expression in HT-29 cells; assay: Western blot of E-cadherin expression, HT-29 cells; format: cell-based; conditions: HT-29 cells, average of n = 12
Procedure: as §1
as §2, with “Signal intensity was normalized against the total protein content in each lanes.” left out

[3] = system: E-cadherin expression in Caco-2 cells; assay: Western blot of E-cadherin expression, Caco-2 cells; format: cell-based; conditions: CaCo-2 cells, average of n = 6
Procedure: as §1
as §2, with “Signal intensity was normalized against the total protein content in each lanes.” left out

[4] = system: E-cadherin expression in HCT-8 cells; assay: Western blot of E-cadherin expression, HCT-8 cells (EntF*, alanine and D-amino acid analogs); format: cell-based
Procedure: as §1, §2
A quantitative approach was used to evaluate the importance of each amino acid, where the Fisher’s LSD p-values of (1) multiple comparisons between EntF* and the alanine (ALA) scan and (2) multiple comparisons between different peptides of the ALA scan are combined. Subsequently, based on the combined P-score, the amino acids were classified in 5 classes using a hierarchical cluster analysis and confirmed using the Jenks natural breaks algorithm with K = 5. CombinedPscore=1-PPBSvsALAscan*PEntF*vsALAscan

[5] = system: luciferase-transfected HCT-8/E11 cells injected into the cecal wall; assay: Orthotopic mouse model: macroscopic number of tumor nodules on the cecum; format: in vivo, female athymic nude mice (Swiss nu/nu)
Procedure: (§3) Six-week-old female athymic nude mice (Swiss nu/nu) were anesthetized, and a minimally invasive midline laparotomy was performed to localize the cecum. The cecum was then gently pulled out, and luciferase-transfected HCT-8/E11 cells (1 × 10^6 cells) in 20 μL serum-free DMEM medium with Matrigel (1:1) were injected into the cecal wall. Before implantation, cells were treated with EntF* (10^2 nM), Phr0662 (10^2 nM), vehicle (PBS), or TGFα positive control (0.1 μg mL^−1) solutions for 5 days. The cecum was then carefully placed back into the abdominal cavity and the surgical incision was closed with two layers of sutures with PDS 6-0. […] Once a week, mice were examined for tumor growth and metastases using bioluminescent imaging with the IVIS Lumina II (Perkin Elmer, Belgium) after i.p. injection with 200 μL luciferin (150 mg kg^−1). After 6 weeks, mice were euthanized using cervical dislocation, and the liver, diaphragm, lungs, cecum, duodenum, and peritoneum were macroscopically examined for the presence of tumor nodules. Liver and lung tissues were then fixed in formalin for 24 h and stored in 70% ethanol for maximum 3 days before embedding in paraffin. Next, a hematoxylin and eosin (H&E) staining was performed on 8 μm sections, and 3 sections per mouse were visualized using microscopy. Slides from tumor-bearing mice were analyzed by two blinded, independent investigators using the scoring system described in Additional file 5: Table S3. In case of differences, slides were scored by a third blinded, independent investigator for consensus.
(§4) The Kolmogorov-Smirnov test was used to assess if data obtained were normally distributed. For sample size n < 10, non-parametric tests (Mann-Whitney U test) were performed directly. Slope comparison was based on linear regression analysis. Bootstrapped medians and Hedges G-values were used to calculate the effect size when sample sizes were different between the groups. Cohen’s d values were calculated as a measure of the effect size when similar standard deviations for both groups were found, and sample sizes were the same.

[6] = system: tumor nodules in the lungs; assay: Orthotopic mouse model: histopathological evaluation of lungs; format: in vivo, female athymic nude mice (Swiss nu/nu)
Procedure: as §3

[7] = system: tumor nodules in the liver; assay: Orthotopic mouse model: histopathological evaluation of liver; format: in vivo, female athymic nude mice (Swiss nu/nu)
Procedure: as §3

[8] = system: luciferase-transfected HCT-8/E11 cells injected into the cecal wall; assay: Orthotopic mouse model of colorectal cancer: weekly bioluminescent imaging; format: in vivo, female athymic nude mice (Swiss nu/nu)
Procedure: All in vivo experiments were performed according to the Ethical Committee principles of laboratory animal welfare, approved by our institute (Ghent University, Faculty of Medicine and Health Sciences, approval number ECD 17-90). Mice were maintained in a sterile environment under controlled conditions (light–dark cycle with light from 7:00 h to 17:00 h, temperature 21–25 °C and humidity 45–65%). Before the experiment, mice were allowed to acclimate to the abovementioned conditions for a minimum of 7 days.
as §3
as §4, with “groups.” for “groups. Cohen’s d values were calculated as a measure of the effect size when similar standard deviations for both groups were found, and sample sizes were the same.”

[9] = after a 6-week treatment, compared to the placebo group
[10] = individual samples, one line per sample

Substance: C-X-C motif chemokine 12 (KPVSLSYRC; only N-terminal stretch given) [CXCL12, endogenous ligand of the CXCR4 receptor]
- effect on E-cadherin expression in HCT-116 cells ([1]; CXCR4-negative cells, 24 h, n = 12): no decrease
- Relative E-cadherin level ([1]; HCT-116 cells, average of n = 12): 111.3
- Relative E-cadherin expression, average [2]: 78.2
- Relative E-cadherin in different cell lines, Average [3]: 45.3
- effect on E-cadherin levels in HCT-8 cells ([4]; 24 h, n = 15): significant decrease
- E-cadherin expression relative to H2O control (= 100) ([4]; D-scan sheet, Blot 13, CXCL12 1µg/ml, relative to H2O lane = 100.0, single blot): 89.3
- E-cadherin expression relative to H2O control (= 100) ([4]; D-scan sheet, Blot 14, CXCL12 1µg/ml, relative to H2O lane = 100.0, single blot): 93.2
- E-cadherin expression relative to H2O control (= 100) ([4]; D-scan sheet, Blot 15, CXCL12 1µg/ml, relative to H2O lane = 100.0, single blot): 77.6
- E-cadherin expression relative to H2O control (= 100) ([4]; D-scan sheet, Blot 16, CXCL12 1µg/ml, relative to H2O lane = 100.0, single blot): 91.1
- E-cadherin expression relative to H2O control (= 100) ([4]; D-scan sheet, Blot 17, CXCL12 10µg/ml, relative to H2O lane = 100.0, single blot): 46.4
- E-cadherin expression relative to H2O control (= 100) ([4]; D-scan sheet, Blot 18, CXCL12 10µg/ml, relative to H2O lane = 100.0, single blot): 45.6
- E-cadherin expression relative to H2O control (= 100) ([4]; D-scan sheet, Blot 19, CXCL12 10µg/ml, relative to H2O lane = 100.0, single blot): 84.8
- E-cadherin expression relative to H2O control (= 100) ([4]; D-scan sheet, Blot 20, CXCL12 10µg/ml, relative to H2O lane = 100.0, single blot): 28.8
- E-cadherin expression relative to H2O control (= 100) ([4]; D-scan sheet, Blot 21, CXCL12 100µg/ml, relative to H2O lane = 100.0, single blot): 80.5
- E-cadherin expression relative to H2O control (= 100) ([4]; D-scan sheet, Blot 22, CXCL12 100µg/ml, relative to H2O lane = 100.0, single blot): 80.0
- E-cadherin expression relative to H2O control (= 100) ([4]; D-scan sheet, Blot 23 (single blot), chemiluminescence band, Norm. Vol. relative to H2O lane = 100.0, CXCL12 at 100µg/ml): 75.6
- E-cadherin expression relative to H2O control (= 100) ([4]; D-scan sheet, Blot 24 (single blot), chemiluminescence band, Norm. Vol. relative to H2O lane = 100.0, CXCL12 at 100µg/ml): 96.6
- E-cadherin expression relative to H2O control (= 100) ([4]; H2O = 100.0, CXCL12 at 10µg/ml, mean of the replicates (row r47, unlabelled; SEM in row below)): 51.4
- Relative E-cadherin decrease in different cell lines, Average ([4]; HCT-8 cells, average (EntF* n = 15, CXCL12 n = 4)): 51.4

Substance: Epidermal Growth Factor [EGF]
- effect size class by Hedges' G, number of nodules in the cecum [5, 9]: large
- increase in the number of nodules on the cecum compared to PBS vehicle ([5]; after a 6-week treatment, macroscopic inspection): 4.5 fold
- Mean amount of nodules ([5]; macroscopic evaluation caecum, mean of the group): 16.3
- Histology scoring LUNGS, Scoring person 1 (ND) [6, 10]: 3 and 4 and 0 and 1
- Histology scoring LUNGS, Scoring person 2 (ADS) [6, 10]: 3 and 4 and 0 and 1
- Histology scoring LUNGS, conclusion per sample [6, 10]: 3 and 4 and 0 and 1
- Histology scoring LUNGS, conclusion per group ([6]; per group): 3
- Histology scoring LIVER, Scoring person 1 (ND) [7, 10]: 4 and 3 and 2 and 0
- Histology scoring LIVER, Scoring person 2 (ADS) [7, 10]: 4 and 2 and 1 and 3 and 0
- Histology scoring LIVER, conclusion per sample [7, 10]: 4 and 2 and 1 and 3 and 0
- Histology scoring LIVER, conclusion per group ([7]; per group): 3
- effect size of bioluminescence, upper end of range ([8]; after a 6-week treatment): 826%
- effect size class by Hedges' G, bioluminescence [8, 9]: medium to large effect
- effect size: increase in bioluminescence compared to the placebo ([8]; after a 6-week treatment, bootstrapped median): 316%
- luciferase activity / tumor growth compared to the vehicle ([8]; daily i.p. over 6 weeks, linear regression slope comparison): significant increase in tumor growth

Substance: TGFa
- Relative E-cadherin decrease ([4]; Ala-scan sheet, Blot 19 (single blot), chemiluminescence band, placebo lane = 100): 49.4514
- E-cadherin expression relative to H2O control (= 100) ([4]; Ala-scan sheet, Blot 20 (single blot), chemiluminescence band, placebo lane = 100): 55.9239
- Relative E-cadherin decrease ([4]; Ala-scan sheet, Blot 21 (single blot), chemiluminescence band, placebo lane = 100): 121.047
- E-cadherin expression relative to H2O control (= 100) ([4]; Ala-scan sheet, Blot 24 (single blot), chemiluminescence band, Norm. Vol. relative to placebo lane = 100): 52.2
- E-cadherin expression relative to H2O control (= 100) ([4]; Ala-scan sheet, Blot 25 (single blot), chemiluminescence band, Norm. Vol. relative to placebo lane = 100): 30.5
- E-cadherin expression relative to H2O control (= 100) ([4]; Ala-scan sheet, Blot 26 (single blot), chemiluminescence band, Norm. Vol. relative to placebo lane = 100): 88.2
- E-cadherin expression relative to H2O control (= 100) ([4]; Ala-scan sheet, Blot 27 (single blot), chemiluminescence band, Norm. Vol. relative to placebo lane = 100): 330.9
- E-cadherin expression relative to H2O control (= 100) ([4]; Ala-scan, Blot 11 (single blot replicate), normalized band volume relative to Placebo = 100.0): 85.7
- E-cadherin expression relative to H2O control (= 100) ([4]; Ala-scan, Blot 12 (single blot replicate), normalized band volume relative to Placebo = 100.0): 80.6
- E-cadherin expression relative to H2O control (= 100) ([4]; Ala-scan, Blot 13 (single blot replicate), normalized band volume relative to Placebo = 100.0): 55.6
- E-cadherin expression relative to H2O control (= 100) ([4]; Ala-scan, Blot 14 (single blot replicate), normalized band volume relative to Placebo = 100.0): 119.9
- E-cadherin expression relative to H2O control (= 100) ([4]; Ala-scan, Blot 18 (single blot replicate), normalized band volume relative to Placebo = 100.0): 188.1
- Ala scan: Relative E-cadherin decrease ([4]; H2O = 100.0, mean of the replicates (row r29, unlabelled; SEM in row below)): 73.9
- Ala-scan: Mean decrease (%) ([4]; H2O vs. test, 95% CI, Dunnett's and Fisher's LSD P values in neighbouring columns): 26.1%
